Data: patent publication US11285132B2, “Uses of indolinone compounds” (Oncternal Therapeutics, Inc., priority 2016, dated 2022)

Legend:
TMD8 cells xenografts = assay: TMD8 ABC-DLBCL xenograft in NOD-SCID mice; type: in vivo; settings: 100 mg/Kg, BID
Protocol: NOD-Scid mice subcutaneously inoculated with TMD8 cells (15×10^6) were split in two groups respectively treated with TK-216 (100 mg/kg, BID, po, n=9) and control vehicle (n=10). In each box-plot, the line in the middle of the box represents the median and the box extends from the 25th to the 75th percentile (interquartile range, IQ); the whiskers extend to the upper and lower adjacent values (i.e., ±1.5 IQ).
56 lymphoma cell lines [27 diffuse large B cell lymphoma (DLBCL); 10 mantle cell lymphoma; 6 marginal zone lymphoma; 5 anaplastic large T-cell lymphoma; 8 others] were exposed to TK-216 increasing doses for 72 h using a Tecan D300e Digital Dispenser and 384 well plates. Cell proliferation was measured with MTT. In vivo study was done in NOD-SCID mice; treatments were started with approximately sc 60 mm3 tumor volumes. Sensitivity was not affected by the lymphoma cell of origin (B vs T; activated B cell type DLBCL versus germinal center type DLBCL) or MYC and TP53 status. There was a non-statistically significant trend for lower sensitivity in cell lines bearing BCL2 chromosomal translocation (P=0.07, DLBCL only; P=0.06, all cell lines).
The latter synergism could be linked to the previously mentioned negative trend between TK-216 IC50 values and the presence of BCL2 translocation.
Cell lines were exposed to YK-4-279 or TK-216, alone or in combination with other compounds, for 72 h using a Tecan D300e Digital Dispenser and 96 well plates. Cell proliferation was measured with MTT. Synergy was determined with the Chou-Talalay combination index. Gene expression profiling (GEP) was performed with the Illumina HumanHT 12 Expression BeadChips. In vivo studies were done in NOD-SCID mice and treatments started with 60 mm3 tumor volumes sc.

THP-1 = assay: 72 hr CellTiter-Glo, AML cell line; type: cell-based; settings: Homo sapiens

## O=C(CC1(O)C(=O)Nc2c(Cl)ccc(Cl)c21)c1ccc(C2CC2)cc1 (stereo not drawn) [TK216, 4,7-Dichloro-3-(2-(4-cyclopropylphenyl)-2-oxoethyl)-3-hydroxyindolin-2-one]
TMD8 cells xenografts; D11, P<0.01 vs control group
  reduction in tumor volume at D11: four-times
TMD8 cells xenografts; n=9
  tumor growth compared with control group: reduction in tumor growth
THP-1
  IC50: 152 nM
